We go through two compounds from patent US20240180889A1, “COMBINATION THERAPY FOR COVID-19 VACCINATION” (priority 2021, published 2024).

In assay [1] the test system is MDA-MB-231 cells. In kind it is cell-based, human.
Assay [2] deals with Tartrate Resistant Acid Phosphatase (TRAP) activity in RAW-OC cells. In kind it is cell-based, mouse.
Assay [3] deals with MCF-7 cells. In kind it is cell-based.

Take `C[C@]12CC[C@@H]3c4ccc(O)cc4CC[C@H]3[C@@H]1CC[C@@H]2O` [17β-estradiol]: the “cell proliferation (BrdU)” value in assay [1] was “do not significantly affect cell proliferation”. Further, in assay [2], the “activity of TRAP” value is “superimposable decrease”.
`O=C(c1ccc(OCCN2CCCCC2)cc1)c1c(-c2ccc(O)cc2)sc2cc(O)ccc12` [Raloxifene, raloxifene]: in assay [3], the “effect on proliferation promoting activity of 17β-estradiol and spike” value is “blocked”. Besides, in assay [2], the “effect on the estradiol- or spike-induced decrease in TRAP activity” value is reported as “blocked”.
